Experimental data as given in patent publication US10183943B2, “Heterocyclic compounds and their use in preventing or treating bacterial infections” (MUTABILIS, priority 2015, dated 2019).
Where two headings read alike, the source gives them in different places.

Tests used:
CTX-M-15 = target: T1, CTX-M-15 (Escherichia coli, UniProt Q9EXV5); experiment: β-lactamase inhibitory activity, determination of IC50 (nitrocefin hydrolysis); format: biochemical
T1 construct: made in house; host or cells: E. coli
T1 sequence (Q9EXV5 entry or part of it): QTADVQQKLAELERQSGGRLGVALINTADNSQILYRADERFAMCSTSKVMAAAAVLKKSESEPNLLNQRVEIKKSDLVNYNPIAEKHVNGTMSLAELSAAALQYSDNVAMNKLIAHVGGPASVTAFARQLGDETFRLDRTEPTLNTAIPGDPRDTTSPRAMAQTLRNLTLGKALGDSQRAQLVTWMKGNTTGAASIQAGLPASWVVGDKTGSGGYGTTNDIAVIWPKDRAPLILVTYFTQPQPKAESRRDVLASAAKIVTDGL

OXA-48 = target: T2, OXA-48 (Klebsiella pneumoniae, UniProt Q6XEC0); experiment: as above; format: biochemical
T2 construct: made in house; host or cells: E. coli
T2 sequence (Q6XEC0 23-265 limits assumed): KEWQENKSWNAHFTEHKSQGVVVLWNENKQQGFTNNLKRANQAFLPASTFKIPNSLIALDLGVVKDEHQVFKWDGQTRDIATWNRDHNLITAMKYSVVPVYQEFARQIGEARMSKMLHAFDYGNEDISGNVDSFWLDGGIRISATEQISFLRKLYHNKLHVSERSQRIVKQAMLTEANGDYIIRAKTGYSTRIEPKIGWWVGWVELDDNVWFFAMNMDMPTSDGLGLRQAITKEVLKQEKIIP

AmpC P. aeruginosa = AmpC P. aeruginosa (Pseudomonas aeruginosa, UniProt P24735); experiment: as above
Chain of AmpC P. aeruginosa (P24735 27-397): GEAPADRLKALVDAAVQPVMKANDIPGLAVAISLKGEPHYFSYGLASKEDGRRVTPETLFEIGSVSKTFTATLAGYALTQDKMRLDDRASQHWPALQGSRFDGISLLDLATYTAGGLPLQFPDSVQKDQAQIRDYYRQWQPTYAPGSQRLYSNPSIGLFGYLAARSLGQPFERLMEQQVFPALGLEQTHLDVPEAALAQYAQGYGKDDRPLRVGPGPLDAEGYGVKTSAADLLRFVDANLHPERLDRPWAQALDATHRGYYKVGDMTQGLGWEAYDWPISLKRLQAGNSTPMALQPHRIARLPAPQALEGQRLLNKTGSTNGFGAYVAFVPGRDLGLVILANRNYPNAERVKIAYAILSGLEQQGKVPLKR

OXA-15 = target: T3, OXA-15 (Pseudomonas aeruginosa, UniProt Q51574); experiment: biochemical
T3 construct: made in house; host or cells: E. coli
T3 sequence (Q51574 22-275): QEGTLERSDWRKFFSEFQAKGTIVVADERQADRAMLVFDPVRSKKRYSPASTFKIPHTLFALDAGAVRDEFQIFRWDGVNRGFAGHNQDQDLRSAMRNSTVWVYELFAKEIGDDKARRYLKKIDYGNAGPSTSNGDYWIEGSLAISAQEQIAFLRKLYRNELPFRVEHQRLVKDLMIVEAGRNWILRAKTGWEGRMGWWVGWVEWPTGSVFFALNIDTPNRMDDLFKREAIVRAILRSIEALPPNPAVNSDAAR

OXA-11 = target: T4, OXA-11 (Pseudomonas aeruginosa, UniProt Q06778); experiment: β-lactamase inhibitory activity, determination of IC50 (nitrocefin hydrolysis); format: biochemical
T4 construct: made in house; host or cells: E. coli
T4 sequence (Q06778 21-266): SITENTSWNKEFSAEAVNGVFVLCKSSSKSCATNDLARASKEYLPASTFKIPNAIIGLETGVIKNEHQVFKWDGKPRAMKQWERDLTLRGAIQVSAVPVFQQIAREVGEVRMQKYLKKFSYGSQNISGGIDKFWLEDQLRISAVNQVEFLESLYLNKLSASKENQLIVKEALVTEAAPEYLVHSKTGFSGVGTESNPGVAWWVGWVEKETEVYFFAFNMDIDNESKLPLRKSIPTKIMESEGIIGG

OXA-1 = target: T5, OXA-1 (Escherichia coli, UniProt P13661); experiment: as above; format: biochemical
T5 construct: made in house; host or cells: E. coli
T5 sequence (P13661 26-276): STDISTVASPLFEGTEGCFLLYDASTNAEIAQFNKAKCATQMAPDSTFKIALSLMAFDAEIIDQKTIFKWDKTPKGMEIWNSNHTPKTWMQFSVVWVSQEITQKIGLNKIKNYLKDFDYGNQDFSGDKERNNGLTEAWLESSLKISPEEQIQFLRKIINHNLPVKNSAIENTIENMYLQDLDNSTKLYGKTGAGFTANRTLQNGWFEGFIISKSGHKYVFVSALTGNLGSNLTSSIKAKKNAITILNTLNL

KPC-2 = target: T6, KPC-2 (Klebsiella pneumoniae, UniProt Q9F663); experiment: as above; format: biochemical
T6 construct: made in house; host or cells: E. coli
T6 sequence (Q9F663 25-293 limits assumed): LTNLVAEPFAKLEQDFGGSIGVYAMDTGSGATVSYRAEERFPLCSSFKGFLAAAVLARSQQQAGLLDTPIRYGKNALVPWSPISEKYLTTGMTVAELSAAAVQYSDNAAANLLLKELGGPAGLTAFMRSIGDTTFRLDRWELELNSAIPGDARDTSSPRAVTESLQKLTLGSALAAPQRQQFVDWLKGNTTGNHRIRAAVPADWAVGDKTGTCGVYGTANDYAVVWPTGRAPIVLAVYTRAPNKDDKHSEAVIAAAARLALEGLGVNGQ

TEM-1 = target: T7, TEM-1 (Escherichia coli, UniProt P62593); experiment: as above; format: biochemical
T7 construct: made in house; host or cells: E. coli
T7 sequence (P62593 24-286 limits assumed): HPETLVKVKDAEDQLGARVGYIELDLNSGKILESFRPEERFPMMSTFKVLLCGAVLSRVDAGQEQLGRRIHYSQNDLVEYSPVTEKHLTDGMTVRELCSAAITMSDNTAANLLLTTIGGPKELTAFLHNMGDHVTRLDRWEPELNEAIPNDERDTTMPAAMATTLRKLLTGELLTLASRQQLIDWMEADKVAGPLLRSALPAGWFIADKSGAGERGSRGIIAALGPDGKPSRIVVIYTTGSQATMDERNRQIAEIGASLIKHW

[1] = test system: K. oxytoca UFR21 (TEM-1, CTX-M-15, OXA-48); experiment: MIC of compounds alone, broth microdilution; format: cell-based; settings: Klebsiella oxytoca, read-out: MIC compounds of the invention alone
Summary of the method: (§1)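 MICs of compounds without ceftazidime were measured by CLSI broth microdilution in cation-adjusted Mueller-Hinton broth. Growth was checked by eye after 16-20 h at 35° C.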

[2] = test system: E. cloacae UFR51 (SHV-12, IMP-8); experiment: MIC of compounds alone, broth microdilution; format: cell-based; settings: Enterobacter cloacae, read-out: MIC compounds of the invention alone
Summary of the method: as §1

[3] = test system: K. pneumoniae UFR68 (TEM-1, SHV-11, CTX-M-15, KPC-3); experiment: MIC of compounds alone, broth microdilution; format: cell-based; settings: Klebsiella pneumoniae, read-out: MIC compounds of the invention alone
Summary of the method: as §1

[4] = test system: E. coli UFR32 (TEM-1, VEB-1, OXA-10); experiment: MIC of compounds alone, broth microdilution; format: cell-based; settings: Escherichia coli, read-out: MIC compounds of the invention alone
Summary of the method: as §1

[5] = test system: E. coli UFR74 (SHV-1, DHA-1); experiment: MIC of compounds alone, broth microdilution; format: cell-based; settings: Escherichia coli, read-out: MIC compounds of the invention alone
Summary of the method: as §1

[6] = test system: K. pneumoniae UFR77 (CMY-2); experiment: MIC of compounds alone, broth microdilution; format: cell-based; settings: Klebsiella pneumoniae, read-out: MIC compounds of the invention alone
Summary of the method: as §1

[7] = test system: E. cloacae UFR85 (TEM-1, CTX-M-15, AmpC); experiment: MIC of compounds alone, broth microdilution; format: cell-based; settings: Enterobacter cloacae, read-out: MIC compounds of the invention alone
Summary of the method: as §1

[8] = test system: K. pneumoniae BAA-1898 (TEM-1, SHV-11, SHV-12, KPC-2); experiment: MIC of compounds alone, broth microdilution; format: cell-based; settings: Klebsiella pneumoniae
Summary of the method: as §1

[9] = test system: P. aeruginosa CIP107051 (TEM-24); experiment: MIC of compounds alone, broth microdilution; format: cell-based; settings: Pseudomonas aeruginosa
Summary of the method: as §1

[10] = test system: E. cloacae 260508 (TEM-1, CTX-M-15); experiment: MIC of compounds alone, broth microdilution; format: cell-based; settings: Enterobacter cloacae, read-out: MIC compounds of the invention alone
Summary of the method: as §1

[11] = test system: K. pneumoniae 160143 (TEM-1, SHV-1, CTX-M-15, KPC-2, OXA-1); experiment: MIC of compounds alone, broth microdilution; format: cell-based; settings: Klebsiella pneumoniae, read-out: MIC compounds of the invention alone
Summary of the method: as §1

[12] = test system: K. pneumoniae UFR39 (CTX-M-15, NDM-1); experiment: MIC of compounds alone, broth microdilution; format: cell-based; settings: Klebsiella pneumoniae, read-out: MIC compounds of the invention alone
Summary of the method: as §1

[13] = test system: E. coli UFR41 (TEM-1, CTX-M-15, CMY-2, OXA-1, NDM-4); experiment: MIC of compounds alone, broth microdilution; format: cell-based; settings: Escherichia coli, read-out: MIC compounds of the invention alone
Summary of the method: as §1

[14] = test system: E. coli 131119 (TEM-1, OXA-48); experiment: MIC of compounds alone, broth microdilution; format: cell-based; settings: Escherichia coli, read-out: MIC compounds of the invention alone
Summary of the method: as §1

E. cloacae P99 (AmpC) = experiment: MIC of compounds alone, broth microdilution; format: cell-based; settings: Enterobacter cloacae, read-out: MIC compounds of the invention alone
Summary of the method: as §1

[15] = test system: K. pneumoniae 6299 (TEM-1, SHV-11, OXA-163); experiment: MIC of compounds alone, broth microdilution; format: cell-based; settings: Klebsiella pneumoniae, read-out: MIC compounds of the invention alone
Summary of the method: as §1

[16] = test system: E. coli UFR61O (TEM-1, KPC-2); experiment: MIC of compounds alone, broth microdilution; format: cell-based; settings: Escherichia coli, read-out: MIC compounds of the invention alone
Summary of the method: as §1

[17] = test system: K. pneumoniae 200047 (TEM-1, SHV-32, CTX-M-15, OXA-1); experiment: MIC of compounds alone, broth microdilution; format: cell-based; settings: Klebsiella pneumoniae, read-out: MIC compounds of the invention alone
Summary of the method: as §1

[18] = test system: E. coli 190317 (TEM-1, SHV-12, CTX-M-15, OXA-1); experiment: MIC of compounds alone, broth microdilution; format: cell-based; settings: Escherichia coli, read-out: MIC compounds of the invention alone
Summary of the method: as §1

[19] = test system: E. cloacae UFR70 (TEM-1, CTX-M-15, CMY-2, OXA-1, Porin loss); experiment: MIC of compounds alone, broth microdilution; format: cell-based; settings: Enterobacter cloacae, read-out: MIC compounds of the invention alone
Summary of the method: as §1

[20] = test system: E. coli UFR18 (CTX-M-15, OXA-204); experiment: MIC of compounds alone, broth microdilution; format: cell-based; settings: Escherichia coli, read-out: MIC compounds of the invention alone
Summary of the method: as §1

E. coli RGN238 (OXA-1) = experiment: MIC of compounds alone, broth microdilution; format: cell-based; settings: Escherichia coli, read-out: MIC compounds of the invention alone
Summary of the method: as §1

[21] = test system: K. pneumoniae UFR24 (TEM-1, SHV-2, SHV-11, OXA-1, OXA-48, OXA-47); experiment: MIC of compounds alone, broth microdilution; format: cell-based; settings: Klebsiella pneumoniae, read-out: MIC compounds of the invention alone
Summary of the method: as §1

SHV-1 = target: T8, SHV-1 (Klebsiella pneumoniae, UniProt P0AD64); experiment: β-lactamase inhibitory activity, determination of IC50 (nitrocefin hydrolysis); format: biochemical
T8 construct: made in house; host or cells: E. coli
T8 sequence (P0AD64 22-286): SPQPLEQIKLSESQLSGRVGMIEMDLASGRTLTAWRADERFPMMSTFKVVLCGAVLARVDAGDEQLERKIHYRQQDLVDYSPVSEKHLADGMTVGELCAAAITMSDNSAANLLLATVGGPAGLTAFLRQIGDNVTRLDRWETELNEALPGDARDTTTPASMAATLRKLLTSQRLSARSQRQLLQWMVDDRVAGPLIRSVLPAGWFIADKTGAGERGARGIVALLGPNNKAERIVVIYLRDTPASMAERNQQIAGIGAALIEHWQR

AmpC (P99) = AmpC (P99) (Enterobacter cloacae, UniProt P05364); experiment: as above
Chain of AmpC (P99) (P05364 21-381): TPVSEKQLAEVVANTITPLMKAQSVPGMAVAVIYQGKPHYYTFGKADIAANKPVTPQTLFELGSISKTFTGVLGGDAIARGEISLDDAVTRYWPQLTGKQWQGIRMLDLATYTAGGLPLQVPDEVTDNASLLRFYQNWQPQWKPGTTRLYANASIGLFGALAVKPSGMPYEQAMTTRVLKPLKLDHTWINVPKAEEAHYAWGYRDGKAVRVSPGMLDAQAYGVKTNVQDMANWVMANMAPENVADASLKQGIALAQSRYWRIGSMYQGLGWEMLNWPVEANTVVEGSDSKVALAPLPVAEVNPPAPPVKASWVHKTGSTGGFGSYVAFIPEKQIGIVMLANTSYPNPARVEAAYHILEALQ

[22] = BAA1898, read-out: MIC compounds of the invention alone
[23] = CIP107051, read-out: MIC compounds of the invention alone

Row | Structure (SMILES) | IC50 (CTX-M-15) [µM] | IC50 (OXA-48) [µM] | IC50 (AmpC P. aeruginosa) [µM] | IC50 (OXA-15) [µM] | IC50 (OXA-11) [µM] | IC50 (OXA-1) [µM] | IC50 (KPC-2) [µM] | IC50 (TEM-1) [µM] | MIC [1] [µg/mL] | MIC [2] [µg/mL] | MIC [3] [µg/mL] | MIC [4] [µg/mL] | MIC [7] [µg/mL] | MIC [10] [µg/mL] | MIC [11] [µg/mL] | MIC [13] [µg/mL] | MIC [17] [µg/mL] | MIC [19] [µg/mL] | IC50 (SHV-1) [µM] | IC50 (AmpC (P99)) [µM] | further results
1 | O=C1N2CC(c3ncco3)=C[C@H](C2)N1OC(F)(F)C(=O)O (racemic) [Example 37] | 0.00057 | 0.0018 | 0.24 | 0.059 | 0.21 | 7.4 | 0.053 | 0.0016 | 4 | 4 | 4 | 2 | 2 | 4 | 4 | 16 | 2 | 2 | 0.013 | 0.63 | MIC [5]: 4 µg/mL; MIC [6]: 4 µg/mL; MIC [8, 22]: 4 µg/mL; MIC [9, 23]: > 128 µg/mL; MIC [12]: 8 µg/mL; MIC [14]: 2 µg/mL; MIC (E. cloacae P99 (AmpC)): 8 µg/mL; MIC [15]: 8 µg/mL; MIC [16]: 8 µg/mL; MIC [18]: 2 µg/mL; MIC [20]: 2 µg/mL; MIC (E. coli RGN238 (OXA-1)): 2 µg/mL; MIC [21]: 4 µg/mL
2 | O=C1N2CC=C(c3cnoc3)C(C2)N1OS(=O)(=O)[O-].[Na+] (centres unmarked) [Example 5, Sodium (7-oxo-4-isoxazol-4-yl-1,6-diaza-bicyclo[3.2.1]oct-3-en-6-yl) sulfate] |  |  | 1.5 | 0.094 | 2.2 |  |  | 0.011 | > 32 |  | > 32 |  | > 32 | 16 | > 32 | > 32 | > 32 | 16 | 0.025 | 0.67 | IC50 (CTX-M-15; class (A), nitrocefin 200 μM, 30 min pre-incubation, read-out: IC50 β-lactamase CTX-M-15): 0.0069 µM; IC50 (OXA-48; class (D), nitrocefin 200 μM, 30 min pre-incubation, read-out: IC50 β-lactamase OXA-48): 0.0057 µM; IC50 (OXA-1; class (D), nitrocefin 200 μM, 30 min pre-incubation, read-out: IC50 β-lactamase OXA-1): 0.45 µM; IC50 (KPC-2; class (A), nitrocefin 200 μM, 30 min pre-incubation, read-out: IC50 β-lactamase KPC-2): 0.27 µM; MIC ([2]; strain UFR51 (E. cloacae)): 2 µg/mL; MIC ([4]; strain UFR32 (E. coli)): 1 µg/mL; MIC ([5]; strain UFR74 (E. coli)): > 32 µg/mL; MIC ([6]; strain UFR77 (K. pneumoniae)): > 32 µg/mL; MIC ([8]; BAA1898, strain BAA-1898 (K. pneumoniae), read-out: MIC compounds of the invention alone): > 32 µg/mL; MIC ([9]; strain CIP107051 (P. aeruginosa), read-out: MIC compounds of the invention alone): > 32 µg/mL; MIC ([12]; strain UFR39 (K. pneumoniae)): 2 µg/mL; MIC ([14]; strain 131119 (E. coli)): 16 µg/mL; MIC (E. cloacae P99 (AmpC); strain P99 (E. cloacae)): 8 µg/mL; MIC ([15]; strain 6299 (K. pneumoniae)): > 32 µg/mL; MIC ([16]; strain UFR61O (E. coli)): 8 µg/mL; MIC ([20]; strain UFR18 (E. coli)): 1 µg/mL; MIC (E. coli RGN238 (OXA-1); strain RGN238 (E. coli)): > 32 µg/mL; MIC ([21]; strain UFR24 (K. pneumoniae)): > 32 µg/mL
3 | O=C1N2CC=C(c3cnoc3)C(C2)N1OC(F)(F)C(=O)[O-].[Li+] (centres unmarked) [Example 6, Lithium difluoro-(4-isoxazol-4-yl-7-oxo-1,6-diaza-bicyclo[3.2.1]oct-3-en-6-yloxy)-acetate] | 0.0017 | 0.0037 | 4.2 | 0.028 | 0.18 | 1.7 | 0.46 | 0.0073 | > 32 | 2 | > 32 | 2 | > 32 | 4 | > 32 | > 32 | 32 | 16 | 0.018 | 1.8 | MIC [5]: > 32 µg/mL; MIC [6]: > 32 µg/mL; MIC [8, 22]: > 32 µg/mL; MIC [9, 23]: > 32 µg/mL; MIC [12]: 4 µg/mL; MIC [14]: 4 µg/mL; MIC (E. cloacae P99 (AmpC)): 4 µg/mL; MIC [15]: > 32 µg/mL; MIC [16]: 8 µg/mL; MIC [18]: 2 µg/mL; MIC [20]: 2 µg/mL; MIC (E. coli RGN238 (OXA-1)): 16 µg/mL; MIC [21]: > 32 µg/mL
